Test results: ChEMBL document CHEMBL4831531, “Mangostanin Derivatives as Novel and Orally Active Phosphodiesterase 4 Inhibitors for the Treatment of Idiopathic Pulmonary Fibrosis with Improved Safety” (J Med Chem, 2021)
≈ marks a conversion by molar mass, not a printed value. Calls of active or inactive are those of the source. The calls are words filed in the database; no cut-off is given here.

Tests used:
[1] = target: 3',5'-cyclic-AMP phosphodiesterase 4D (Homo sapiens, UniProt Q08499); assay: Inhibition of PDE4D2 (86-413) (unknown origin) expressed in Escherichia coli BL21 assessed as using [3H]-cAMP as substrate measured for 15 mins by liquid scintillation counting analysis
Chain of 3',5'-cyclic-AMP phosphodiesterase 4D (Q08499 whole entry): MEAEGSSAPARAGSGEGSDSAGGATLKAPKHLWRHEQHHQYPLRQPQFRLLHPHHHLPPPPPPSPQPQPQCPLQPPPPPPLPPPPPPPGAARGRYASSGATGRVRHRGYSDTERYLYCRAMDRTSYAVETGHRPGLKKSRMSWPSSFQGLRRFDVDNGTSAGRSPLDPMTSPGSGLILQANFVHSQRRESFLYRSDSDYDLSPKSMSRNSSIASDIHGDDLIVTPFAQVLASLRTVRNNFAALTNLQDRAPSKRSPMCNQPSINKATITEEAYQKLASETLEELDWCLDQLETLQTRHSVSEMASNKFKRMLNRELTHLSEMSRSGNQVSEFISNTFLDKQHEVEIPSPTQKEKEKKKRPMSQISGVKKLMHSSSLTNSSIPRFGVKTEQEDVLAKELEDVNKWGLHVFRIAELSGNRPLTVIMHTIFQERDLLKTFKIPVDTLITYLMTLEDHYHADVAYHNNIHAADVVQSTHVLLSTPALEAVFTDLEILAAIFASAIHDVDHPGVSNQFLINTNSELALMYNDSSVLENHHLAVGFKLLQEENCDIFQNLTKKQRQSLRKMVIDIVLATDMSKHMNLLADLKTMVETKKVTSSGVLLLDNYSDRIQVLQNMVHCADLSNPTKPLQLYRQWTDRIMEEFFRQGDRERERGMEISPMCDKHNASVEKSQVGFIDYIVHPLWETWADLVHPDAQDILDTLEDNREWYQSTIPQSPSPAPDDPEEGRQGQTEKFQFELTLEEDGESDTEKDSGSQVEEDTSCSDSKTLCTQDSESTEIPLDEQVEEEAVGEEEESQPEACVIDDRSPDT

[2] = Acute toxicity in mouse at 1.5 g/Kg, po; settings: in vivo, 1500 mg/kg
[3] = Solubility of the compound in deionized water; format: physicochemical
Rattus norvegicus [4] = assay: Anti-idiopathic pulmonary fibrotic activity in bleomycin-induced Sprague-Dawley rat model assessed as reversal of respiratory rate at 10 mg/kg, po treated for 28 consecutive days relative to control; format: functional, organism-based
Rattus norvegicus [5] = assay: Anti-inflammatory activity in bleomycin-induced idiopathic pulmonary fibrotic activity Sprague-Dawley rat model assessed as decrease in NO production in lungs at 10 mg/kg, po treated for 28 consecutive days; format: functional, organism-based
Cytochrome P450 2C9 = Cytochrome P450 2C9 (Homo sapiens, UniProt P11712); assay: Inhibition of human hepatic CYP2C9; format: ADME, tissue-based, Liver
Chain of Cytochrome P450 2C9 (P11712 whole entry): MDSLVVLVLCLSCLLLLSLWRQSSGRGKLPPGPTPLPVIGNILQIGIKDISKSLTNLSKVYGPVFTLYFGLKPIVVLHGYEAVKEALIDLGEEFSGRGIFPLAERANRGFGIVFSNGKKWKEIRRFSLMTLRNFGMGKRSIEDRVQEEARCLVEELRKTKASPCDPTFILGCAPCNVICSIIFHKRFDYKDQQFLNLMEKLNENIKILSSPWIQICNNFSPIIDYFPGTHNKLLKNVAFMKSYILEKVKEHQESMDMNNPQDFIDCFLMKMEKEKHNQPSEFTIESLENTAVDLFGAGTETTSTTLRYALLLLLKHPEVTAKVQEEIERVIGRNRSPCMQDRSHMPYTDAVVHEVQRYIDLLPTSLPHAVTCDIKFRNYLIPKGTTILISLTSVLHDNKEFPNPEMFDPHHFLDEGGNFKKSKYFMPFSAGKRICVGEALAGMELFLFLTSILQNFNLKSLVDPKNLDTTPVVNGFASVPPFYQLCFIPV

[6] = target: High affinity 3',5'-cyclic-AMP phosphodiesterase 7A (Homo sapiens, UniProt Q13946); assay: Inhibition of PDE7A1 (130-482) (unknown origin) expressed in Escherichia coli BL21 assessed as using [3H]-cAMP as substrate measured for 15 mins by liquid scintillation counting analysis
Chain of High affinity 3',5'-cyclic-AMP phosphodiesterase 7A (Q13946 whole entry): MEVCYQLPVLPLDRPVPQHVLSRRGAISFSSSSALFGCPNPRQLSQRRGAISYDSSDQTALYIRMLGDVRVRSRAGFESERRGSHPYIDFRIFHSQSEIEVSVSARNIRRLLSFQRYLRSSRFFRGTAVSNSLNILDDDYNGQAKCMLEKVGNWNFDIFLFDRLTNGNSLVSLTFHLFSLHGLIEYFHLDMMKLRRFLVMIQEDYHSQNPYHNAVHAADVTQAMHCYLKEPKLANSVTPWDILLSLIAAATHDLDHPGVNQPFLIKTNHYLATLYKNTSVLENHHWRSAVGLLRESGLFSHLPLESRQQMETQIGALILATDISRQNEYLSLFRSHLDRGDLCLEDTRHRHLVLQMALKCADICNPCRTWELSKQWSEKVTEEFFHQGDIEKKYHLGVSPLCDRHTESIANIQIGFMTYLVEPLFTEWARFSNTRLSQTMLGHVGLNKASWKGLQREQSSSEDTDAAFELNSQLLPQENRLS

Cytochrome P450 2B6 = target: T1, Cytochrome P450 2B6 (Homo sapiens, UniProt P20813); assay: Inhibition of human hepatic CYP2B6; format: ADME, tissue-based, Liver
T1 sequence (P20813 whole entry): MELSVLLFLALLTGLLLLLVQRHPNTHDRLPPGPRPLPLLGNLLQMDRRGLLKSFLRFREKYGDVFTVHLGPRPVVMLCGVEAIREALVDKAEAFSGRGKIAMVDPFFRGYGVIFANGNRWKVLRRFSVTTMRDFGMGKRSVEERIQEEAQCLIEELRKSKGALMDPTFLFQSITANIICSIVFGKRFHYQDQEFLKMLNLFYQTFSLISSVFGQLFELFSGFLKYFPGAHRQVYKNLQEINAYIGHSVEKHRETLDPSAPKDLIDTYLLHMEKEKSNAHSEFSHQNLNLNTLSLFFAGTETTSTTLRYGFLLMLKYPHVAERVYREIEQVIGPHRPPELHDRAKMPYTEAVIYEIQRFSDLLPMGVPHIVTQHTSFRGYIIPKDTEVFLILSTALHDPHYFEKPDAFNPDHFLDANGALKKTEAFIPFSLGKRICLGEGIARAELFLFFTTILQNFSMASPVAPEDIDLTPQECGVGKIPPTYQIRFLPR

[7] = target: Dual specificity calcium/calmodulin-dependent 3',5'-cyclic nucleotide phosphodiesterase 1C (Homo sapiens, UniProt Q14123); assay: Inhibition of PDE1C (147-531) (unknown origin) expressed in Escherichia coli BL21 assessed as using [3H]-cAMP as substrate measured for 15 mins by liquid scintillation counting analysis
Chain of Dual specificity calcium/calmodulin-dependent 3',5'-cyclic nucleotide phosphodiesterase 1C (Q14123 whole entry): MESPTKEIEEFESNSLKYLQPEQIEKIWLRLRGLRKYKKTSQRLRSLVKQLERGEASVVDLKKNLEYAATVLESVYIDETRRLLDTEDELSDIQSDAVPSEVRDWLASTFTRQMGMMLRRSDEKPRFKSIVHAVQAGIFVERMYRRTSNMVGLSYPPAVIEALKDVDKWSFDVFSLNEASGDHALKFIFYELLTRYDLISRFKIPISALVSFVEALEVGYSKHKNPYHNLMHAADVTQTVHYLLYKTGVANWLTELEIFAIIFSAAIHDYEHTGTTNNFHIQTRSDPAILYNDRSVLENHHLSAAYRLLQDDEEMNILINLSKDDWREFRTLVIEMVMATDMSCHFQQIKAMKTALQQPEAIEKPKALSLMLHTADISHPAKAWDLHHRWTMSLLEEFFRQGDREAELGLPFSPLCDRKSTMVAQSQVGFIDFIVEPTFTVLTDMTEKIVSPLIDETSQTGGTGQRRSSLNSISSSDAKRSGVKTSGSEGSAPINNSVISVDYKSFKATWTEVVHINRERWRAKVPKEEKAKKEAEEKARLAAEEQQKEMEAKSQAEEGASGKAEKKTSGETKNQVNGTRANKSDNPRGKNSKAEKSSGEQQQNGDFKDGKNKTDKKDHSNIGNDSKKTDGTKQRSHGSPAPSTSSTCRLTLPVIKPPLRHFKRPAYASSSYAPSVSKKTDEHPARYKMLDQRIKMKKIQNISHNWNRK

[8] = target: cAMP and cAMP-inhibited cGMP 3',5'-cyclic phosphodiesterase 10A (Homo sapiens, UniProt Q9Y233); assay: Inhibition of PDE10A2 (449-770) (unknown origin) expressed in Escherichia coli BL21 assessed as using [3H]-cAMP as substrate measured for 15 mins by liquid scintillation counting analysis
Chain of cAMP and cAMP-inhibited cGMP 3',5'-cyclic phosphodiesterase 10A (Q9Y233 whole entry): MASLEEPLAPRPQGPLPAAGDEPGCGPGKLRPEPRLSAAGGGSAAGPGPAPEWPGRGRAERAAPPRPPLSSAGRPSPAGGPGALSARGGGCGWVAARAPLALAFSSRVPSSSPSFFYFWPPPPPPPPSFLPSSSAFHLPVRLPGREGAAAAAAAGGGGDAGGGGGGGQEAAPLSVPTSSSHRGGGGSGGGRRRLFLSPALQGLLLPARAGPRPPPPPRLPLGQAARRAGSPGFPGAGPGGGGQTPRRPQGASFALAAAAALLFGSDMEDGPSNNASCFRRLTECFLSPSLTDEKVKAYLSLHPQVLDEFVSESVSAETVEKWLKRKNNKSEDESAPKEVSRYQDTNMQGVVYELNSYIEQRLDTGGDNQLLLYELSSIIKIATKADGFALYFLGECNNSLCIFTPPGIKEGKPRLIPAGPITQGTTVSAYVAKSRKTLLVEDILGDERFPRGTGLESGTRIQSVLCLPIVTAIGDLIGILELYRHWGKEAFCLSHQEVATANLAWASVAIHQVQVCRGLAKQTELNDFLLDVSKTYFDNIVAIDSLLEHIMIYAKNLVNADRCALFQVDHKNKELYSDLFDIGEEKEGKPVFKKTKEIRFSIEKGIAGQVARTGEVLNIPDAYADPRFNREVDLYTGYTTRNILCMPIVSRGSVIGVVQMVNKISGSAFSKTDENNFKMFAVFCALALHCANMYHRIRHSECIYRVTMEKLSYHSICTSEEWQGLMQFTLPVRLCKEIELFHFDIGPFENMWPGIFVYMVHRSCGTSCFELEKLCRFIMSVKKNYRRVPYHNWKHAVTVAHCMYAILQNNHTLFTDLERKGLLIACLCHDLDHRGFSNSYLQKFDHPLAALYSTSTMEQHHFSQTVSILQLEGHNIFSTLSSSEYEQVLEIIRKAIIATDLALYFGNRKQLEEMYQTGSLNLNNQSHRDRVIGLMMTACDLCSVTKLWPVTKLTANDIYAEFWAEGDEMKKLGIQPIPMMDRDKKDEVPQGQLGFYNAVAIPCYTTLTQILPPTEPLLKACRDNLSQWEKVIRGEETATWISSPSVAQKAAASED

Rattus norvegicus [9] = assay: Anti-idiopathic pulmonary fibrotic activity in bleomycin-induced Sprague-Dawley rat model assessed as decrease in fibronectin expression of lungs at 10 mg/kg, po treated for 28 consecutive days by Western blot analysis; format: functional, organism-based

With `COc1c(OCc2ccc(F)cc2)cc2oc3cc4c(c(OC/C=C/C(=O)O)c3c(=O)c2c1CC=C(C)C)C=CC(C)(C)O4` the IC50 [1] was 15 nM, the Activity [2] was “Non-Toxic” and the solubility [3] was 1.1 µg/mL (≈ 1.83 µM). The Activity (Rattus norvegicus [4]) was “Active”, the Activity (Rattus norvegicus [5]) was “Active” and the IC50 (Cytochrome P450 2C9) was 1700 nM. For the same compound, the IC50 [6] was 298 nM, the IC50 (Cytochrome P450 2B6) was > 25000 nM and the IC50 [7] was 440 nM. For the same compound, the IC50 [8] was 260 nM and the Activity (Rattus norvegicus [9]) was “Active”.
